Data from article PMC7006677 (Pharmacological reports : PR, 2020).

Legend:
Type in all cases: cell-based
[1] = biological target: T1, GABAA receptor (α1β3γ2L), β3 subunit (Homo sapiens, UniProt P14867+P18507+P28472); experiment: two-electrode voltage clamp
[2] = biological target: T1, GABAA receptor (α1β3γ2L), β3 subunit; experiment: two-electrode voltage clamp; remark: listed apart in the source
[3] = biological target: T1, GABAA receptor (α1β3γ2L), β3 subunit; experiment: two-electrode voltage clamp in oocytes

T1 sequence (P28472 26-473): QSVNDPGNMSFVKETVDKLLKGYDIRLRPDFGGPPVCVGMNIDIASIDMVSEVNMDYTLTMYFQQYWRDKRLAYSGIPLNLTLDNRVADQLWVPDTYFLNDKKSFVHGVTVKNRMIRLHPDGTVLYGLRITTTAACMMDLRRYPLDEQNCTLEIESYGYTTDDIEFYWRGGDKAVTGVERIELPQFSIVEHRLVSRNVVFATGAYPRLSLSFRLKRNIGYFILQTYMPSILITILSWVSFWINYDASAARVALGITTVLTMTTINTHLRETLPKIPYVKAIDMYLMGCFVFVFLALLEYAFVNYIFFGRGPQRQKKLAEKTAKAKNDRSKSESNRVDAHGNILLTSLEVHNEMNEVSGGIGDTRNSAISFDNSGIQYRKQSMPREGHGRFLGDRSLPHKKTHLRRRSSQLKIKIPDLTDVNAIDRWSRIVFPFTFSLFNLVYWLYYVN
T1 sequence (P14867 28-456): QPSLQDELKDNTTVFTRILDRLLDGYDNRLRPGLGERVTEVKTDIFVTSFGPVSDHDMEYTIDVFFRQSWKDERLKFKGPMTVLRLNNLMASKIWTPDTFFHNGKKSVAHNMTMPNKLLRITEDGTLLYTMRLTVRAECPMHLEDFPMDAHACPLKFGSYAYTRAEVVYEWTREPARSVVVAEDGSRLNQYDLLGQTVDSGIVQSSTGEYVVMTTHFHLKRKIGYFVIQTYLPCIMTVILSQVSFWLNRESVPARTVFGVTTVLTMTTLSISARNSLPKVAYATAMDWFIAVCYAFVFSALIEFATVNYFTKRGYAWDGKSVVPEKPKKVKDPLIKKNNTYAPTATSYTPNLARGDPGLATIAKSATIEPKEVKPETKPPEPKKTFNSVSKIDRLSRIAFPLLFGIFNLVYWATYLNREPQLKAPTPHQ
T1 sequence (P18507 40-475): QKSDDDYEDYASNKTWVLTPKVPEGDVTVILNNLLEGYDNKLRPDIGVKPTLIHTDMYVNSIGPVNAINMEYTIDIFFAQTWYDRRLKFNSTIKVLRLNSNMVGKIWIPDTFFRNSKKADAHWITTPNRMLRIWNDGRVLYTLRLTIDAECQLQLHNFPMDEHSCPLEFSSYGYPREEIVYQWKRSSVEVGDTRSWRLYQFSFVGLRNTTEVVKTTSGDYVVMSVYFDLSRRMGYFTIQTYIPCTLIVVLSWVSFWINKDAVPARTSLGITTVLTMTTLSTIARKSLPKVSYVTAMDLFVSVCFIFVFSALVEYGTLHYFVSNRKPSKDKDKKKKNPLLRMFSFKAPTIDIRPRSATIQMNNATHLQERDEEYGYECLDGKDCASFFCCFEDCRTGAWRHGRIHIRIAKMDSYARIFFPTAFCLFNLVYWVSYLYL

Row | Compound | two-electrode voltage clamp; potentiation of EC5 GABA currents, reversed by naph [1] | other results
1 | OCC(Cl)(Cl)Cl [2,2,2-Trichloroethanol] | ~ 2 mM | –
2 | Cl/C(=C\n1cncn1)c1ccc(Cl)cc1Cl [Loreclezole] | ~ 10 μM | –
3 | NCc1cc(=O)[nH]o1 [Muscimol] | – | two-electrode voltage clamp; potentiation of EC5 GABA currents, not reversed by [2]: ~ 3 μM
4 | CC(=O)[C@H]1CC[C@H]2[C@@H]3CC[C@H]4C[C@H](O)CC[C@]4(C)[C@H]3C(=O)C[C@]12C [Alphaxalone] | ~ 2 μM | –
5 | naphthalene-etomidate | – | IC50 [3]: 76 µM
6 | FC(F)OC(Cl)C(F)(F)F (stereo not shown) [Isoflurane] | ~ 1.5 mM | –
7 | CCOC(=O)Nc1ccc(NCc2c(C)cc(C)cc2C)cc1N [AA29504] | ~ 1 μM | –
